In US6355799B1, “Substituted benzene compounds, process for their preparation, and herbicidal and defoliant compositions containing them” (ISK Americas Incorporated, priority 1997, dated 2002):

How the values were obtained:
Type in all cases: in vivo
[1] = tested on: redroot pigweed (Amaranthus retroflexus, AMARE); assay: Pre-emerge test, greenhouse herbicide activity screening
Procedure, shortened: (§1)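 Sandy loam pots; pre-emerge: sown 1 d pre-spray, surface-watered after, then bottom-watered. Post-emerge: sown 8–21 d before, 2–3 leaf stage, + 0.25% v/v NIS, bottom-watered. Acetone, 187 l/ha track spray, 15–1000 g ai/ha. 0–100 injury score, day 14.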

[2] = tested on: field corn (Zea mays L., var. Dekalb 535, CORN); assay: Post-emerge test, crop safety; conditions: post-emerge; for Post-emerge Herbicidal Activity CORN: crop damage rating 0-100 at 14 days after application; for phytotoxicity rating CORN (crop damage): 14 days after application, rating scale 0-100
Procedure, shortened: (§2)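 Compounds in acetone were track-sprayed at 15-1000 g ai/ha (187 l/ha) on sandy loam pots: pre-emerge one day after seeding, post-emerge at 2-3 leaf stage with 0.25% v/v non-ionic surfactant. Phytotoxicity was rated 14 days later on a 0 (no damage) to 100 (complete death) scale.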

[3] = tested on: upland rice (Oryza sp., var. Tebonnet, RICE); assay: Post-emerge test, crop safety; conditions: post-emerge; for Post-emerge Herbicidal Activity RICE: crop damage rating 0-100 at 14 days after application; for phytotoxicity rating RICE (crop damage): 14 days after application, rating scale 0-100
Procedure, shortened: as §2

[4] = tested on: sicklepod (Cassia obtusifolia, CASOB); assay: Pre-emerge test, greenhouse herbicide activity screening
Procedure, shortened: as §2

[5] = tested on: barnyardgrass (Echinochloa crus-galli, ECHCG); assay: as above
Procedure, shortened: as §2

[6] = tested on: velvetleaf (Abutilon theophrasti, ABUTH); assay: as above
Procedure, shortened: as §2

[7] = tested on: ivyleaf morningglory (Ipomoea hederacea, IPOHE); assay: as above
Procedure, shortened: as §2

[8] = tested on: green foxtail (Setaria viridis, SETVI); assay: as above
Procedure, shortened: as §2

[9] = tested on: lambsquarters (Chenopodium album, CHEAL); assay: as above
Procedure, shortened: as §2

[10] = tested on: large crabgrass (Digitaria sanguinalis, DIGSA); assay: as above
Procedure, shortened: as §2

[11] = tested on: sicklepod (Cassia obtusifolia, CASOB); assay: Post-emerge test, greenhouse herbicide activity screening; conditions: post-emerge; for Post-emerge Herbicidal Activity CASOB: phytotoxicity rating 0-100 at 14 days after application; for phytotoxicity rating CASOB: 14 days after application, rating scale 0-100
Procedure, shortened: (§3)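 Compounds in acetone were track-sprayed at 187 l/ha, 15–1000 g ai/ha, onto sandy loam pots. Pre-emerge seeds were sown one day before spraying, with surface watering afterwards. Post-emerge plants were at the 2–3 leaf stage and sprayed with 0.25% v/v non-ionic surfactant. Injury was rated 0–100 at 14 days.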

[12] = tested on: barnyardgrass (Echinochloa crus-galli, ECHCG); assay: as above; conditions: post-emerge; for Post-emerge Herbicidal Activity ECHCG: phytotoxicity rating 0-100 at 14 days after application; for phytotoxicity rating ECHCG: 14 days after application, rating scale 0-100
Procedure, shortened: as §3

[13] = tested on: redroot pigweed (Amaranthus retroflexus, AMARE); assay: as above; conditions: post-emerge; for Post-emerge Herbicidal Activity AMARE: phytotoxicity rating 0-100 at 14 days after application; for phytotoxicity rating AMARE: 14 days after application
Procedure, shortened: as §3

[14] = tested on: velvetleaf (Abutilon theophrasti, ABUTH); assay: as above; conditions: post-emerge; for Post-emerge Herbicidal Activity ABUTH: phytotoxicity rating 0-100 at 14 days after application; for phytotoxicity rating ABUTH: 14 days after application, rating scale 0-100
Procedure, shortened: as §3

[15] = tested on: ivyleaf morningglory (Ipomoea hederacea, IPOHE); assay: as above; conditions: post-emerge; for Post-emerge Herbicidal Activity IPOHE: phytotoxicity rating 0-100 at 14 days after application; for phytotoxicity rating IPOHE: 14 days after application, rating scale 0-100
Procedure, shortened: as §3

[16] = tested on: johnsongrass (Sorghum halepense, SORHA); assay: as above; conditions: post-emerge; for Post-emerge Herbicidal Activity SORHA: phytotoxicity rating 0-100 at 14 days after application; for phytotoxicity rating SORHA: 14 days after application, rating scale 0-100
Procedure, shortened: as §3

[17] = tested on: green foxtail (Setaria viridis, SETVI); assay: as above; conditions: post-emerge; for Post-emerge Herbicidal Activity SETVI: phytotoxicity rating 0-100 at 14 days after application; for phytotoxicity rating SETVI: 14 days after application, rating scale 0-100
Procedure, shortened: as §3

[18] = tested on: lambsquarters (Chenopodium album, CHEAL); assay: as above; conditions: post-emerge; for Post-emerge Herbicidal Activity CHEAL: phytotoxicity rating 0-100 at 14 days after application; for phytotoxicity rating CHEAL: 14 days after application, rating scale 0-100
Procedure, shortened: as §3

[19] = tested on: large crabgrass (Digitaria sanguinalis, DIGSA); assay: as above; conditions: post-emerge; for Post-emerge Herbicidal Activity DIGSA: phytotoxicity rating 0-100 at 14 days after application; for phytotoxicity rating DIGSA: 14 days after application, rating scale 0-100
Procedure, shortened: as §3

[20] = tested on: field corn (Zea mays L., var. Dekalb 535, CORN); assay: Pre-emerge test, crop safety
Procedure, shortened: as §1

[21] = tested on: upland rice (Oryza sp., var. Tebonnet, RICE); assay: Pre-emerge test, crop safety
Procedure, shortened: as §1

[22] = pre-emerge, rate 63 g ai/ha, phytotoxicity rating 0-100 at 14 days after application
[23] = pre-emerge, rate 250 g ai/ha, phytotoxicity rating 0-100 at 14 days after application
[24] = crop damage, pre-emerge, rate 63 g ai/ha, phytotoxicity rating 0-100 at 14 days after application
[25] = crop damage, pre-emerge, rate 250 g ai/ha, phytotoxicity rating 0-100 at 14 days after application
[26] = 63 g ai/ha, phytotoxicity rating 0-100, 14 days after application
[27] = 250 g ai/ha, phytotoxicity rating 0-100, 14 days after application
[28] = 63 g ai/ha, crop damage rating 0-100, 14 days after application
[29] = 250 g ai/ha, crop damage rating 0-100, 14 days after application

Cc1c(Cl)cc(F)c(-n2c(=O)cc(C(F)(F)F)n(C)c2=O)c1NC(=O)SCc1ccccc1 [4-66]
Pre-emerge Herbicidal Activity AMARE [1, 22]: 100
Pre-emerge Herbicidal Activity AMARE [1, 23]: 100
Post-emerge Herbicidal Activity CORN ([2]; 63 g ai/ha): 15
Post-emerge Herbicidal Activity CORN ([2]; 250 g ai/ha): 60
Post-emerge Herbicidal Activity RICE ([3]; 63 g ai/ha): 30
Post-emerge Herbicidal Activity RICE ([3]; 250 g ai/ha): 70
Pre-emerge Herbicidal Activity CASOB [4, 22]: 30
Pre-emerge Herbicidal Activity CASOB [4, 23]: 70
Pre-emerge Herbicidal Activity ECHCG [5, 22]: 30
Pre-emerge Herbicidal Activity ECHCG [5, 23]: 90
Pre-emerge Herbicidal Activity ABUTH [6, 22]: 100
Pre-emerge Herbicidal Activity ABUTH [6, 23]: 100
Pre-emerge Herbicidal Activity IPOHE [7, 22]: 60
Pre-emerge Herbicidal Activity IPOHE [7, 23]: 90
Pre-emerge Herbicidal Activity SETVI [8, 22]: 70
Pre-emerge Herbicidal Activity SETVI [8, 23]: 100
Pre-emerge Herbicidal Activity CHEAL [9, 22]: 100
Pre-emerge Herbicidal Activity CHEAL [9, 23]: 100
Pre-emerge Herbicidal Activity DIGSA [10, 22]: 80
Pre-emerge Herbicidal Activity DIGSA [10, 23]: 100
Post-emerge Herbicidal Activity CASOB ([11]; 63 g ai/ha): 20
Post-emerge Herbicidal Activity CASOB ([11]; 250 g ai/ha): 90
Post-emerge Herbicidal Activity ECHCG ([12]; 63 g ai/ha): 0
Post-emerge Herbicidal Activity ECHCG ([12]; 250 g ai/ha): 40
Post-emerge Herbicidal Activity AMARE ([13]; 63 g ai/ha): 80
Post-emerge Herbicidal Activity AMARE ([13]; 250 g ai/ha): 100
Post-emerge Herbicidal Activity ABUTH ([14]; 63 g ai/ha): 100
Post-emerge Herbicidal Activity ABUTH ([14]; 250 g ai/ha): 100
Post-emerge Herbicidal Activity IPOHE ([15]; 63 g ai/ha): 100
Post-emerge Herbicidal Activity IPOHE ([15]; 250 g ai/ha): 100
Post-emerge Herbicidal Activity SORHA ([16]; 63 g ai/ha): 0
Post-emerge Herbicidal Activity SORHA ([16]; 250 g ai/ha): 50
Post-emerge Herbicidal Activity SETVI ([17]; 63 g ai/ha): 10
Post-emerge Herbicidal Activity SETVI ([17]; 250 g ai/ha): 60
Post-emerge Herbicidal Activity CHEAL ([18]; 63 g ai/ha): 80
Post-emerge Herbicidal Activity CHEAL ([18]; 250 g ai/ha): 100
Post-emerge Herbicidal Activity DIGSA ([19]; 63 g ai/ha): 10
Post-emerge Herbicidal Activity DIGSA ([19]; 250 g ai/ha): 50
Pre-emerge Herbicidal Activity CORN [20, 24]: 0
Pre-emerge Herbicidal Activity CORN [20, 25]: 50
Pre-emerge Herbicidal Activity RICE [21, 24]: 20
Pre-emerge Herbicidal Activity RICE [21, 25]: 65

COc1c(Cl)cc(F)c(-n2c(=O)cc(C(F)(F)F)n(C)c2=O)c1NC(=O)OCc1ccccn1 [4-36]
Pre-emerge Herbicidal Activity AMARE [1, 26]: 90
Pre-emerge Herbicidal Activity AMARE [1, 27]: 100
phytotoxicity rating CORN (crop damage) ([2]; 63 g ai/ha): 50
phytotoxicity rating CORN (crop damage) ([2]; 250 g ai/ha): 100
phytotoxicity rating RICE (crop damage) ([3]; 63 g ai/ha): 60
phytotoxicity rating RICE (crop damage) ([3]; 250 g ai/ha): 100
Pre-emerge Herbicidal Activity CASOB [4, 26]: 80
Pre-emerge Herbicidal Activity CASOB [4, 27]: 100
Pre-emerge Herbicidal Activity ECHCG [5, 26]: 30
Pre-emerge Herbicidal Activity ECHCG [5, 27]: 90
Pre-emerge Herbicidal Activity ABUTH [6, 26]: 100
Pre-emerge Herbicidal Activity ABUTH [6, 27]: 100
Pre-emerge Herbicidal Activity IPOHE [7, 26]: 100
Pre-emerge Herbicidal Activity IPOHE [7, 27]: 100
Pre-emerge Herbicidal Activity SETVI [8, 26]: 60
Pre-emerge Herbicidal Activity SETVI [8, 27]: 100
Pre-emerge Herbicidal Activity CHEAL [9, 26]: 100
Pre-emerge Herbicidal Activity CHEAL [9, 27]: 100
Pre-emerge Herbicidal Activity DIGSA [10, 26]: 30
Pre-emerge Herbicidal Activity DIGSA [10, 27]: 100
phytotoxicity rating CASOB ([11]; 63 g ai/ha): 100
phytotoxicity rating CASOB ([11]; 250 g ai/ha): 100
phytotoxicity rating ECHCG ([12]; 63 g ai/ha): 20
phytotoxicity rating ECHCG ([12]; 250 g ai/ha): 60
phytotoxicity rating AMARE ([13]; 63 g ai/ha, rating scale 0-100 (0 no damage, 100 complete death)): 100
phytotoxicity rating AMARE ([13]; 250 g ai/ha, rating scale 0-100): 100
phytotoxicity rating ABUTH ([14]; 63 g ai/ha): 100
phytotoxicity rating ABUTH ([14]; 250 g ai/ha): 100
phytotoxicity rating IPOHE ([15]; 63 g ai/ha): 100
phytotoxicity rating IPOHE ([15]; 250 g ai/ha): 100
phytotoxicity rating SORHA ([16]; 63 g ai/ha): 10
phytotoxicity rating SORHA ([16]; 250 g ai/ha): 90
phytotoxicity rating SETVI ([17]; 63 g ai/ha): 90
phytotoxicity rating SETVI ([17]; 250 g ai/ha): 90
phytotoxicity rating CHEAL ([18]; 63 g ai/ha): 100
phytotoxicity rating CHEAL ([18]; 250 g ai/ha): 100
phytotoxicity rating DIGSA ([19]; 63 g ai/ha): 30
phytotoxicity rating DIGSA ([19]; 250 g ai/ha): 70
Pre-emerge Herbicidal Activity CORN [20, 28]: 90
Pre-emerge Herbicidal Activity CORN [20, 29]: 100
Pre-emerge Herbicidal Activity RICE [21, 28]: 60
Pre-emerge Herbicidal Activity RICE [21, 29]: 95
